# According to patent publication US8293774B2, “Optically active (R)-aryloxypropionic acid amides and herbicidal composition comprising same” (Kyung Nong Corporation, priority 2007, dated 2012):
# What was measured:
# [1] = tested on: Echinochloa oryzicola; assay: Foliage treatment with emulsions, dry rice field conditions (Test Example 2, Table 9); assay type: in vivo; conditions: 150 g a.i./ha; emulsion of Formulation Example 3; division stage 1~2; 20 days after foliage treatment
# Source text: (§1) Seeds of rice (Nampyung rice) and barnyard grasses (Echinochloa oryzicola and Echinochloa crus-galli var. crus-galli) were placed in sandy loam of pots, covered with soil, and grown in the dry rice field conditions.
# (§2) Rice (6˜6.5-leaf stage, plant height 33.2 cm) and barnyard grasses (Echinochloa oryzicola: division stage 1˜2, plant height 38.0 cm, Echinochloa crus-galli var. crus-galli: division stage 1˜2, plant height 44.1 cm) were subjected to a foliage treatment with emulsions prepared according to Formulation Example 3 by using compounds of Examples 1, 5 and 13 (purity: 99% or more), wherein the emulsions were sprayed to the plants at a dosage of the active compound of 150 g/ha.
# (§3) The herbicidal effect on the barnyard grasses and harmful effect on the rice of the test compounds at 20 days and 30 days after the foliage treatment were visually evaluated as in Test Example 1 in comparison with the untreated control, and the results are shown in Table 9.
# [2] = tested on: Echinochloa crus-galli var. crus-galli; assay: as above; assay type: in vivo; conditions: 150 g a.i./ha; emulsion of Formulation Example 3; division stage 1~2; 20 days after foliage treatment
# Source text: as §1, §2, §3
# [3] = tested on: Barnyard grass; assay: Weed control test, 4-leaf stage plants (Test Example 1, Table 8); assay type: in vivo, Echinoch crus-galli Beauv. var. caudata Kitagawa
# Source text: Seeds of rice, wheat, soy bean, barley, corn, common sorgum, barnyard grass, large crabgrass, creek grass, green foxtail and fall panicum were placed in sandy loam in 600 cm^2 pots and covered with soil. […], 2,000 l/ha of an emulsion obtained by diluting with water a mixture of 1 part by weight of a test compound, 5 parts by weight of acetone and 1 part by weight of an emulsifying agent (Tween 80, Junsei) was applied to the surface of the foliage of the plants. The plant damage at 10 days and 20 days after the foliage treatment was visually evaluated from the level of 1 to 100% by comparison with the untreated control: […]
# [4] = tested on: GLXMA (Glycine max(L.) MERR, soy bean); assay: Weed control test, foliage treatment (Test Example 1, Table 7); conditions: in vivo
# [5] = tested on: TRZAW (Tritium aestivum L., wheat); assay: as above; conditions: in vivo
# [6] = tested on: rice (Nampyung rice); assay: Foliage treatment with emulsions, dry rice field conditions, harmful effect on rice (Test Example 2, Table 9); assay type: in vivo; conditions: 6~6.5-leaf stage, 150 g a.i./ha, emulsion
# Source text: as §1
# [7] = tested on: SETVIR (Setaria viridis (L.) Beauv, green foxtail); assay: Weed control test, foliage treatment (Test Example 1, Table 7); assay type: in vivo; conditions: Setaria viridis, foliar, read-out: Plant damage (herbicidal activity), visually evaluated, SETVIR; for pest or weed control at 25 g/ha: 0.025 kg/ha; for pest or weed control at 100 g/ha: 0.1 kg/ha; for pest or weed control at 200 g/ha: 0.2 kg/ha
# How it was run: (§4)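 Greenhouse pot plants in sandy loam at 20 to 30 °C, grown to the 3-leaf stage of barnyard grass. Foliage sprayed at 2,000 l/ha with a water-diluted emulsion of compound, acetone and Tween 80 (1:5:1 by weight). Damage scored visually, 1 to 100% versus untreated control, at 10 and 20 days.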
# [8] = tested on: ECHOG (Echinoch crus-galli Beauv. var. caudata Kitagawa, barnyard grass); assay: as above; assay type: in vivo; conditions: Echinochloa crus-galli, foliar, 3-leaf stage, read-out: Plant damage (herbicidal activity), visually evaluated, ECHOG; for pest or weed control at 25 g/ha: 0.025 kg/ha; for pest or weed control at 100 g/ha: 0.1 kg/ha; for pest or weed control at 200 g/ha: 0.2 kg/ha
# How it was run: as §4
# [9] = tested on: SORBI (Andropogon sorghum, common sorgum); assay: as above; assay type: in vivo; conditions: Sorghum bicolor, foliar, read-out: Plant damage (herbicidal activity), visually evaluated, SORBI; for pest or weed control at 25 g/ha: 0.025 kg/ha; for pest or weed control at 100 g/ha: 0.1 kg/ha; for pest or weed control at 200 g/ha: 0.2 kg/ha
# How it was run: as §4
# [10] = tested on: ARTHIS (Arthraxon hispidus (Thunb.) Makino, creek grass); assay: as above; assay type: in vivo; conditions: Arthraxon hispidus, foliar, read-out: Plant damage (herbicidal activity), visually evaluated, ARTHIS; for pest or weed control at 25 g/ha: 0.025 kg/ha; for pest or weed control at 100 g/ha: 0.1 kg/ha; for pest or weed control at 200 g/ha: 0.2 kg/ha
# How it was run: as §4
# [11] = tested on: PANDI (Panium dichotomiflorum Michx, fall panicum); assay: as above; assay type: in vivo; conditions: Panicum dichotomiflorum, foliar, read-out: Plant damage (herbicidal activity), visually evaluated, PANDI; for pest or weed control at 25 g/ha: 0.025 kg/ha; for pest or weed control at 100 g/ha: 0.1 kg/ha; for pest or weed control at 200 g/ha: 0.2 kg/ha
# How it was run: as §4
# [12] = tested on: DIGSA (Digitaria Sanguinalis (L.) SCOP, large crabgrass); assay: as above; assay type: in vivo; conditions: Digitaria sanguinalis, foliar, read-out: Plant damage (herbicidal activity), visually evaluated, DIGSA; for pest or weed control at 25 g/ha: 0.025 kg/ha; for pest or weed control at 100 g/ha: 0.1 kg/ha; for pest or weed control at 200 g/ha: 0.2 kg/ha
# How it was run: as §4
# [13] = tested on: ZEAMX (Zea mays L., corn); assay: as above; assay type: in vivo; conditions: Zea mays, foliar, read-out: Plant damage (herbicidal activity), visually evaluated, ZEAMX; for plant injury at 25 g/ha: 0.025 kg/ha; for plant injury at 100 g/ha: 0.1 kg/ha; for plant injury at 200 g/ha: 0.2 kg/ha
# How it was run: as §4
# [14] = tested on: ORYSA (Oryza sativa cv. Dongjin, rice); assay: as above; conditions: in vivo
# [15] = tested on: Rice; assay: Weed control test, 4-leaf stage plants (Test Example 1, Table 8); conditions: in vivo
# Protocol: Seeds of rice, wheat, soy bean, barley, corn, common sorgum, barnyard grass, large crabgrass, creek grass, green foxtail and fall panicum were placed in sandy loam in 600 cm^2 pots and covered with soil. After keeping the pots in a greenhouse at 20 to 30° C. allowing growth of the plants to the 3-leaf stage of the barnyard grass, 2,000 l/ha of an emulsion obtained by diluting with water a mixture of 1 part by weight of a test compound, 5 parts by weight of acetone and 1 part by weight of an emulsifying agent (Tween 80, Junsei) was applied to the surface of the foliage of the plants. The plant damage at 10 days and 20 days after the foliage treatment was visually evaluated from the level of 1 to 100% by comparison with the untreated control: […]
Compound,"Plant damage (herbicidal activity), visually evaluated, Barnyard grass ([3]; 0.025 kg/ha) [%]","Plant damage (herbicidal activity), visually evaluated, Barnyard grass ([3]; 0.05 kg/ha) [%]","Plant damage (herbicidal activity), visually evaluated, Barnyard grass ([3]; 0.1 kg/ha) [%]","Plant damage (herbicidal activity), visually evaluated, Barnyard grass ([3]; 0.4 kg/ha) [%]","Plant damage (herbicidal activity), visually evaluated, GLXMA [4] [%]","Plant damage (herbicidal activity), visually evaluated, TRZAW [5] [%]",pest or weed control at 25 g/ha [7] [%],pest or weed control at 100 g/ha [7] [%],pest or weed control at 200 g/ha [7] [%],pest or weed control at 25 g/ha [8] [%],pest or weed control at 100 g/ha [8] [%],pest or weed control at 200 g/ha [8] [%],pest or weed control at 25 g/ha [9] [%],pest or weed control at 100 g/ha [9] [%],pest or weed control at 200 g/ha [9] [%],pest or weed control at 25 g/ha [10] [%],pest or weed control at 100 g/ha [10] [%],pest or weed control at 200 g/ha [10] [%],pest or weed control at 25 g/ha [11] [%],pest or weed control at 100 g/ha [11] [%],other results
"COc1ccc2nc(NC(=O)[C@@H](C)Oc3ccc(Oc4nc5ccc(Cl)cc5o4)cc3)sc2c1 [Example 13, (R)-2-[4-(6-chloro-2-benzoxazolyloxy)phenoxy]propionic acid-N-(6-methoxy-2-benzothiazolyl)amide]",20,50,70,100,0,0,50,100,100,70,100,100,30,100,100,50,100,100,20,100,"Herbicidal effect (0~100), 20 days, Echinochloa oryzicola [1]: 70%; Herbicidal effect (0~100), 20 days, Echinochloa crus-galli var. crus-galli [2]: 80%; Harmful effect, 20 days ([6]; 20 days after foliage treatment): 10%; Harmful effect, 30 days ([6]; 30 days after foliage treatment): 0%; pest or weed control at 200 g/ha [11]: 100%; pest or weed control at 25 g/ha [12]: 75%; pest or weed control at 100 g/ha [12]: 100%; pest or weed control at 200 g/ha [12]: 100%; plant injury at 25 g/ha [13]: 40%; plant injury at 100 g/ha [13]: 100%; plant injury at 200 g/ha [13]: 100%"
"COc1ccc2nc(N(C)C(=O)[C@@H](C)Oc3ccc(Oc4nc5ccc(Cl)cc5o4)cc3)sc2c1 [Example 14, (R)-2-[4-(6-chloro-2-benzoxazolyloxy)phenoxy]propionic acid-N-(6-methoxy-2-benzothiazolyl)-N-methyl amide]",0,0,10,50,0,0,0,20,50,0,20,70,10,50,90,0,20,50,0,20,"Plant damage (herbicidal activity), visually evaluated, ORYSA [14]: 0%; Plant damage (herbicidal activity), visually evaluated, Rice [15]: 0%; pest or weed control at 200 g/ha [11]: 70%; pest or weed control at 25 g/ha [12]: 0%; pest or weed control at 100 g/ha [12]: 20%; pest or weed control at 200 g/ha [12]: 70%; plant injury at 25 g/ha [13]: 0%; plant injury at 100 g/ha [13]: 10%; plant injury at 200 g/ha [13]: 90%"
